Experimental findings from ChEMBL document CHEMBL4665825, “Paliasanines A-E, 3,4-Methylenedioxyquinoline Alkaloids Fused with a Phenyl-14-oxabicyclo[3.2.1]octane Unit from Melochia umbellata var. deglabrata” (J Nat Prod, 2020) are described below.

The subject of one assay is A549. In words: Antiproliferative activity against human A549 cells assessed as reduction in cell viability after 72 hrs by SRB assay. The assay is classed as functional, cell-based. The following applies: A549, 72 h.
The next assay concerns KB. In words: Antiproliferative activity against human KB cells assessed as reduction in cell viability after 72 hrs by SRB assay. The assay is classed as functional, cell-based.
The subject of assay [1] is Human immunodeficiency virus 1. In words: Antiviral activity against HIV-1 NL4-3 infected in human MT4 cells measured on day 3 by Nano-Glo luciferase assay. The assay is classed as functional, organism-based. The following applies: time 3.0 day.
Assay [2] can be described thus: Antiproliferative activity against human KB-VIN cells assessed as reduction in cell viability after 72 hrs by SRB assay. The assay is classed as functional, cell-based. The following applies: KBVIN.
In the next assay the test system is MCF7. In words: Antiproliferative activity against human MCF7 cells assessed as reduction in cell viability after 72 hrs by SRB assay. The assay is classed as functional, cell-based. The following applies: MCF7, 72 h.
The test system of assay [3] is MDA-MB-231. The experiment in a line: Antiproliferative activity against human MDA-MB-231 cells assessed as reduction in cell viability after 72 hrs by SRB assay. The assay is classed as functional, cell-based. Particulars: MDA-MB-231, 72 h.
Assay [4] is described as follows: Selectivity ratio of IC50 for antiproliferative activity against human KB cells to IC50 for antiproliferative activity against KB-VIN cells. The assay is classed as functional.
For assay [5], the system named is MDA-MB-231. In words: Induction of cell cycle arrest in human MDA-MB-231 cells assessed as accumulation at S phase at 21 uM measured after 24 hrs by propidium iodide staining based flow cytometry analysis. The assay is classed as functional.

Active and inactive are the calls of the source. The rule behind the calls is not given here. Where only a bound is given, the exact number is not on record here.

As to `Cc1nc2ccc3c(c2c2c1OCO2)[C@@H]1CC[C@H](O)[C@@]3(c2ccccc2)O1`, the IC50 (in the assay on A549; with KB; in assay [2]; in the assay with MCF7; in the assay with MDA-MB-231 [3]) was more than 10 µM throughout. Moreover, in assay [1], the result was inactive.

Turning to `COc1ccccc1[C@]1(O)c2ccc3nc(C)c4c(c3c2[C@@H]2CC[C@H]1O2)OCO4`, the IC50 (in the assay with A549; in the assay with KB; in assay [2]; in the assay on MCF7; with MDA-MB-231 [3]) was more than 10 µM throughout.

In the case of `CC[C@@H](C)[C@@H]1NC(=O)[C@@H](NC(=O)[C@H](Cc2ccccc2)N(C)C)[C@H](C(C)C)Oc2ccc(cc2)/C=C\NC1=O`, the IC50 with A549 was 9.5 µM; in the assay on KB, more than 10 µM; in assay [2], more than 10 µM; in the assay on MCF7, more than 10 µM; in the assay on MDA-MB-231 [3], more than 10 µM.

On to `CC(C)[C@@H]1NC(=O)[C@@H](NC(=O)/C=C/c2ccccc2)[C@H](C(C)C)Oc2ccc(cc2)/C=C\NC1=O`, for which the IC50 (with A549; in the assay on KB; in assay [2]; in the assay on MCF7; in the assay on MDA-MB-231 [3]) was more than 10 µM throughout.

Take `COc1ccc(OC)c([C@@]2(O)c3ccc4nc(C)c5c(c4c3[C@@H]3CC[C@H]2O3)OCO5)c1`: the IC50 (in the assay on A549; with KB; in assay [2]; in the assay with MCF7; with MDA-MB-231 [3]) was more than 10 µM each time. Further, the result in assay [1] was inactive.

Regarding `COc1ccccc1[C@@]1(O)c2ccc3nc(C)c4c(c3c2[C@@H]2CC[C@H]1O2)OCO4`, the IC50 (in the assay with A549; in the assay on KB; in assay [2]; in the assay with MCF7; with MDA-MB-231 [3]) was more than 10 µM each time. Also, in assay [1], the outcome was inactive.

As for `CCCCCCCCc1ccc(OC)c2[nH]c(C)c(OC)c(=O)c12`, the IC50 (with A549; with KB; in assay [2]; in the assay with MCF7; with MDA-MB-231 [3]) was more than 10 µM each time.

For the compound `CC1=CC(=O)CC(C)(C)[C@@H]1CC[C@H](C)O`, the IC50 (in the assay on A549; with KB; in assay [2]; with MCF7; in the assay with MDA-MB-231 [3]) was more than 10 µM each time.

In the case of `COc1ccccc1[C@@]1(O)c2ccc3[nH]c(C)c(OC)c(=O)c3c2[C@@H]2CC[C@H]1O2`, the IC50 in the assay with A549 is 6.6 µM; in the assay with KB it was more than 10 µM; in assay [2] it was more than 10 µM; in the assay on MCF7 it was 8 µM; in the assay on MDA-MB-231 [3], more than 10 µM.

For `CC1(C)C[C@H](O)C[C@@]2(C)OC(=O)C=C12` [LOLIOLIDE], the IC50 (in the assay with A549; with KB; in assay [2]; in the assay on MCF7; in the assay on MDA-MB-231 [3]) was more than 10 µM each time.

Take `CC(=O)/C=C/[C@]1(O)C(C)(C)C[C@H](O)C[C@@]1(C)O`: the IC50 (in the assay with A549; in the assay with KB; in assay [2]; in the assay with MCF7; in the assay with MDA-MB-231 [3]) was more than 10 µM each time.

Regarding `COc1ccc(OC)c([C@]2(O)c3ccc4nc(C)c5c(c4c3[C@@H]3CC[C@H]2O3)OCO5)c1`, the IC50 (with A549; with KB; in assay [2]; in the assay with MCF7; in the assay with MDA-MB-231 [3]) was more than 10 µM in each case.

In the case of `CCCCCCCC[C@H]1CCC(=O)c2[nH]c(C)c(OC)c(=O)c21`, the IC50 in the assay with A549 was 8.4 µM; in the assay on KB, 17.7 µM; in assay [2] it was 8.6 µM; in the assay on MCF7, 6.4 µM; in the assay with MDA-MB-231 [3], 6.7 µM. Besides, the “Ratio IC50” value in assay [4] was determined as 2. Further, the result with MDA-MB-231 [5] was Active.

In the case of `CC1=CC(=O)CC(C)(C)[C@@]1(O)/C=C/[C@@H](C)O` [BLUMENOL A], the IC50 (in the assay with A549; with KB; in assay [2]; with MCF7; in the assay on MDA-MB-231 [3]) was more than 10 µM each time.

As to `CC(=O)O[C@H]1C(=O)[C@@]2(C)[C@H]([C@H](OC(=O)c3ccccc3)[C@]3(O)C[C@H](OC(=O)[C@H](O)[C@@H](NC(=O)c4ccccc4)c4ccccc4)C(C)=C1C3(C)C)[C@]1(OC(C)=O)CO[C@@H]1C[C@@H]2O` [PACLITAXEL], the half-inhibitory concentration (IC50) was determined as 0.0065 µM with A549, 0.0077 µM in the assay on KB, 2.35 µM in assay [2] and 0.0135 µM in the assay with MCF7.

`COc1ccc(OC)c([C@@]2(O)c3ccc4[nH]c(C)c(OC)c(=O)c4c3[C@@H]3CC[C@H]2O3)c1`: the IC50 is 5.9 µM with A549; more than 10 µM with KB; more than 10 µM in assay [2]; 8.2 µM in the assay on MCF7; more than 10 µM in the assay with MDA-MB-231 [3].
